Source: publication PMC12481249
Where two headings read alike, the source gives them in different places.

Assays:
MCF-7 Br Ca cell line = experiment: MTT cytotoxicity (antiproliferative) assay
Protocol: Cytotoxic activity evaluation
To measure the cytotoxic actvity of the synthesized naphthalen-1-yloxyacetamide
tethered acrlamide derivatives 5a-j and 6a,b in breast adenocarcinoma (MCF-7) cell line
(ATCC Cat. No. HTB-22). Cell viability assay was assessed using MTT assay method.
Cells at density of 1 x 104 were seeded in a 96-well plate at 37 °C for 24 h under 5%
CO2. After incubation, the cells were treated with different concentrations of the
investigated naphthalen-1-yloxyacetamide tethered acrlamide derivatives 5a-j and 6a,b
and incubated for 24 h, then 20 l of MTT solution at 5 mg/mL was applied and
incubated for 4 h at 37 °C. Dimethyl sulphoxide (DMSO) in volume of 100 µl was
added to each well to dissolve the purple formazan that had formed. The color intensity
of the formazan product, which represents the growth condition of the cells, is quantified
by using an ELISA plate reader (EXL 800, USA) at 570 nm absorbance. The experimental conditions were carried out with at least three replicates, and the experiments were repeated at least three times.

aromatase enzyme = molecular target: T1, aromatase enzyme (Homo sapiens, UniProt P11511); experiment: Aromatase inhibition assay (ELISA method kit); type: biochemical; settings: five concentrations
T1 construct: IC50 values against aromatase enzyme in MCF-7 Br Ca cells treated with; endogenous in cells; host or cells: MCF-7
T1 sequence (P11511 1-503): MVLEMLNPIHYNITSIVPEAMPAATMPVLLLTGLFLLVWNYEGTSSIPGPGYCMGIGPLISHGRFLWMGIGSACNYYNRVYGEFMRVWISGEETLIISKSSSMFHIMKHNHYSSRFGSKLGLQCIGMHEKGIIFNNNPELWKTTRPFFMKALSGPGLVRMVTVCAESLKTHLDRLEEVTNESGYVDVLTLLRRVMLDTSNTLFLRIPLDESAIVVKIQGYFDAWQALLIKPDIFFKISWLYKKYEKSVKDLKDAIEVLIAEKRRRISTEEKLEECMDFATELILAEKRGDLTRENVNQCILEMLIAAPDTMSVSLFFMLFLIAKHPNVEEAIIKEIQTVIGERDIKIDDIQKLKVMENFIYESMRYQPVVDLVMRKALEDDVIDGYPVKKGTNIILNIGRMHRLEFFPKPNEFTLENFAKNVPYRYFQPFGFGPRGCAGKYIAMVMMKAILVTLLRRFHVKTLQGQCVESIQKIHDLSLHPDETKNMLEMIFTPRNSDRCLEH

aromatase = molecular target: aromatase; set-up: method as in PMID 31416738; settings: cited from earlier work
MCF-7 Br Ca cells [1] = experiment: FITC-Annexin V/PI apoptosis assay; type: cell-based; settings: MCF-7, 48 h
Bax = Bax level assay in MCF-7 cells; type: cell-based; settings: MCF-7, qRT-PCR technique (SI: ELISA kit), IC50 concentration
Text: (§1) Programmed cell death, or apoptosis, is a complex series of biochemical processes.[50] Pro-apoptotic proteins include Bad, Bax, Bid and Bim, while anti-apoptotic members include Bcl-2 and Bc-LXI.[51,52] The anti-apoptotic proteins prevent cytochrome-c from release, which inhibits apoptosis, while pro-apoptotic members activate the release of cytochrome-c.[53] When there is a higher ratio of pro-apoptotic proteins than anti-apoptotic ones, the outer mitochondrial membrane becomes permeable leading to a cascade of events.[54] The cytochrome-c is released, which activates caspase 9, which in turn triggers caspase 3, which triggers apoptotic processes.[55] […] According to the data, the tested compound's Bax gen level increased noticeably compared with control. […]
(§2) Annexin V-FITC/ PI dye for 15 min in the dark at 37 °C. The samples were immediately analyzed using FACS Calibur flow cytometer (Becton and Dickinson, Heidelberg, […]
(§3) Bcl-2, Bax and Caspase 9 activities in MCF-7 Br Ca cells were detected in the presence of conjugate 5d at the IC50 concentration (µM). The levels of anti-apoptotic marker Bcl-2, apoptotic markers Bax as well as Caspase 9 were assessed using appropriate ELISA kit. […]
(§4) with IC50 concentration of compound 5d. […] The samples were measured at 450 nm in ROBONEK P2000 ELISA reader. […]

MCF-7 Br Ca cells [2] = experiment: DNA flow cytometry cell cycle analysis; type: cell-based; settings: MCF-7, at the IC50 value for 48 h
Text: It is frequently utilized in cell biology to comprehend growth regulation, cell proliferation and the impact of both drugs and genetic alterations on cellular division.[44] Recognizing and manipulating the phase at which cell cycle arrest occurs can improve the therapeutic efficacy and selectivity of chemotherapeutic drugs, as many cancer therapies target rapidly proliferating cells.[45] The most cytotoxic naphthalen-1-yloxyacetamide-tethered acrylamide conjugate, 5d, was chosen in order to further assess its impact on the advancement on cell cycle in MCF-7 Br Ca cells. […] There was also a control experiment that receives no treatment. According to Flow cytometric study, naphthalen-1-yloxyacetamide-tethered acrylamide conjugate 5d treatment causes a G1 stoppage that is almost 1.4-times greater than that of the control (Fig. 4).
S4.2.3. Cell cycle analysis of compound 5d
Cell cycle analysis in MCF-7 cells was investigated using fluorescent Annexin V-FITC/ PI detection kit (BioVision EZCellTM Cell Cycle Analysis Kit Catalog #K920) by flow […]
washed twice in PBS. After that, the cells were incubated at 37 °C and 5% CO2. The […]
twice in PBS, fixed with 70% ethanol, rinsed again with PBS. Afterward, medium was stained with DNA fluorochrome PI for 15 min at 37 °C. The samples were immediately analyzed using Facs Calibur flow cytometer (Becton and Dickinson, Heidelberg, […]
S4.2.4. […]

caspase 9 = experiment: Caspase 9 level assay in MCF-7 cells; type: cell-based; settings: MCF-7, qRT-PCR technique (SI: ELISA kit), IC50 concentration
Text: An essential initiator caspase in the intrinsic apoptotic process is caspase 9.[56] It is essential for inducing cell death in response to internal stress such as oxidative stress, DNA damage, or oncogene activation conditions, which are frequently present in cancer cells.[57] Therefore, therapeutic strategies that enhance or restore its activity can potentially overcome apoptosis resistance in tumors.[58] In this context, naphthalene-1-yloxyacetamide tethered acrylamide conjugate 5d were evaluated as caspase 9 activator against MCF-7 cells using qRT-PCR technique. […] It is worth mentioning that, the level of caspase 9 protein level is increased 8.2-fold more than the negative control.
Apoptosis in MCF-7 cells was investigated using fluorescent Annexin V-FITC/ PI detection kit (BioVision Annexin V-FITC Apoptosis Detection Kit, Catalog #: K101) by […]
as §2
6. […]
as §3, §4

Bcl-2 = Bcl-2 level assay in MCF-7 cells; type: cell-based; settings: MCF-7, qRT-PCR technique (SI: ELISA kit), IC50 concentration
Text: as §1, §2, §3, §4

[3] = Homo sapiens, MCF7, read-out: IC50 MCF-7, MTT, MCF-7 Br Ca cell line, mean ± SD (n = 3)

In the case of `O=C(COc1cccc2ccccc12)NNC(=O)/C(=C/c1ccc(Cl)cc1)NC(=O)c1ccccc1` [5a, (Z)-N-(1-(4-Chlorophenyl)-3-(2-(2-(naphthalen-1-yloxy)acetyl)hydrazineyl)-3-oxoprop-1-en-2-yl)benzamide], the IC50 (MCF-7 Br Ca cell line; [3]) is reported as 51.8 ± 1.51 µM.

`O=C(COc1cccc2ccccc12)NNC(=O)/C(=C/c1ccco1)NC(=O)c1ccccc1` [6a, (Z)-N-(1-(Furan-2-yl)-3-(2-(2-(naphthalen-1-yloxy)acetyl)hydrazineyl)-3-oxoprop-1-en-2-yl)benzamide] gave an IC50 (MCF-7 Br Ca cell line; [3]) of 9.18 ± 0.66 µM.

Molecule `O=C(COc1cccc2ccccc12)NNC(=O)/C(=C/c1ccc(Br)cc1)NC(=O)c1ccccc1` [5b, (Z)-N-(1-(4-Bromophenyl)-3-(2-(2-(naphthalen-1-yloxy)acetyl)hydrazineyl)-3-oxoprop-1-en-2-yl)benzamide] has an IC50 (MCF-7 Br Ca cell line; [3]) of 30.7 ± 1.18 µM.

Work on `CN(C)c1ccc(/C=C(\NC(=O)c2ccccc2)C(=O)NNC(=O)COc2cccc3ccccc23)cc1` [5e, (Z)-N-(1-(4-(Dimethylamino)phenyl)-3-(2-(2-(naphthalen-1-yloxy)acetyl)hydrazineyl)-3-oxoprop-1-en-2-yl)benzamide] yielded an IC50 (aromatase enzyme) of 93 nM.

In the case of `O=S(=O)(NCc1cccc(CNS(=O)(=O)c2ccc3ccccc3c2)c1)c1ccc2ccccc2c1` [IV], the IC50 (aromatase) is given as 210 nM.

For `COc1ccc(/C=C(\NC(=O)c2ccccc2)C(=O)NNC(=O)COc2cccc3ccccc23)c(OC)c1OC` [5h, (Z)-N-(3-(2-(2-(Naphthalen-1-yloxy)acetyl)hydrazineyl)-3-oxo-1-(2,3,4-trimethoxyphenyl)prop-1-en-2-yl)benzamide], the IC50 (MCF-7 Br Ca cell line; [3]) was 25.9 ± 1.41 µM.

For `COc1ccc(/C=C(\NC(=O)c2ccccc2)C(=O)NNC(=O)COc2cccc3ccccc23)cc1` [5d, (Z)-N-(1-(4-methoxyphenyl)-3-(2-(2-(naphthalen-1-yloxy)acetyl)hydrazineyl)-3-oxoprop-1-en-2-yl)benzamide], the “early apoptosis fold increase vs control” value (MCF-7 Br Ca cells [1]) was 33.6 fold, the “late apoptosis fold increase vs control” value (MCF-7 Br Ca cells [1]) was 42.0 fold and the “late apoptotic cells percentage” value (MCF-7 Br Ca cells [1]; IC50 concentration, control untreated 0.14%) was 5.88%. For the same molecule, the early apoptosis percentage (MCF-7 Br Ca cells [1]; IC50 concentration, no treatment control 0.57%) was 19.17%, the IC50 (MCF-7 Br Ca cell line; [3]) was 3.03 µM and the IC50 (MCF-7 Br Ca cell line; read-out: IC50 MCF-7, MTT, MCF-7 Br Ca cell line, mean ± SD (n = 3)) was 2.33 ± 0.1 µM. For the same molecule, the IC50 (aromatase enzyme) was 78 nM, the “Bax level fold vs untreated MCF-7 cells” value (Bax) was 4.0 fold and the “G1 stoppage relative to control” value (MCF-7 Br Ca cells [2]) was about 1.4 times. For the same molecule, the “caspase 9 level fold vs negative control” value (caspase 9) was 8.2 fold and the “Bcl-2 gene level factor vs negative control” value (Bcl-2) was 0.3.

`COc1ccc(C(=O)N/C(=C\c2ccco2)C(=O)NNC(=O)COc2cccc3ccccc23)cc1` [6b, (Z)-N-(1-(Furan-2-yl)-3-(2-(2-(naphthalen-1-yloxy)acetyl)hydrazineyl)-3-oxoprop-1-en-2-yl)-4-methoxybenzamide] showed an IC50 (MCF-7 Br Ca cell line; [3]) of 11.5 ± 0.76 µM.

`O=C(COc1cccc2ccccc12)NNC(=O)/C(=C/c1cc(Br)c(O)c(Br)c1)NC(=O)c1ccccc1` [5g, (Z)-N-(1-(3,5-Dibromo-4-hydroxyphenyl)-3-(2-(2-(naphthalen-1-yloxy)acetyl)hydrazineyl)-3-oxoprop-1-en-2-yl)benzamide] showed an IC50 (MCF-7 Br Ca cell line; [3]) of 18.5 ± 1.26 µM.

`O=C(COc1cccc2ccccc12)NNC(=O)/C(=C/c1ccc([N+](=O)[O-])cc1)NC(=O)c1ccccc1` [5c, (Z)-N-(3-(2-(2-(Naphthalen-1-yloxy)acetyl)hydrazineyl)-1-(4-nitrophenyl)-3-oxoprop-1-en-2-yl)benzamide] showed an IC50 (aromatase enzyme) of 143 nM.

In the case of `COc1ccc(/C=C(\NC(=O)c2ccccc2)C(=O)NNC(=O)COc2cccc3ccccc23)cc1OC` [5f, (Z)-N-(1-(3,4-Dimethoxyphenyl)-3-(2-(2-(naphthalen-1-yloxy)acetyl)hydrazineyl)-3-oxoprop-1-en-2-yl)benzamide], the IC50 (MCF-7 Br Ca cell line; [3]) is reported as 28.7 ± 1.45 µM.

For `COc1cc(/C=C(\NC(=O)c2ccccc2)C(=O)NNC(=O)COc2cccc3ccccc23)cc(OC)c1OC` [5i, (Z)-N-(3-(2-(2-(Naphthalen-1-yloxy)acetyl)hydrazineyl)-3-oxo-1-(3,4,5-trimethoxyphenyl)prop-1-en-2-yl)benzamide], the IC50 (MCF-7 Br Ca cell line; [3]) was 16.9 ± 0.82 µM.

Work on `COc1ccc(C(=O)N/C(=C\c2cc(OC)c(OC)c(OC)c2)C(=O)NNC(=O)COc2cccc3ccccc23)cc1` [5j, (Z)-4-Methoxy-N-(3-(2-(2-(naphthalen-1-yloxy)acetyl)hydrazineyl)-3-oxo-1-(3,4,5-trimethoxyphenyl)prop-1-en-2-yl)benzamide] yielded an IC50 (MCF-7 Br Ca cell line; [3]) of 21.2 ± 0.92 µM.
